Experimental data from patent US12661397B2, “Adjuvant comprising a glycoarchaeol and an immunostimulant” (priority 2021, dated 2026).

Legend:
[1] = tested on: OVA; assay: Anti-OVA antibody ELISA of mouse serum; assay type: in vivo; settings: OVA-immunized mice, Day 28; 100 = limit of detection (FIG. 5)
Description: (§1) Serum of mice immunized with OVA antigen alone (None) or formulated with SLA archaeosomes, other adjuvants (Poly(I:C), Resiquimod (R848), CpG, MPLA, QS-21, Pam3CSK4) or SLA in combination with other adjuvants was collected on Day 28 (7 days post 2nd immunization by intramuscular route) and analyzed for antigen-specific IgG antibodies by ELISA. Grouped data is presented as geometric mean titer+95% Confidence Interval (n=10/group).
as §1, with “(none)” for “(None)”, “immunization)” for “immunization by intramuscular route)”, “IgG2c” for “IgG”
The levels of anti-OVA or anti-HBsAg antibodies (Abs) in mouse serum were quantified by ELISA using 96-well high-binding ELISA plates (Thermo Fisher Scientific, Waltham, MA, USA) coated overnight at room temperature (RT) with 100 μL of 10 μg/mL OVA (Sigma-Aldrich, St. Louis, MO, USA) in PBS or 1 μg/mL HBsAg (Fitzgerald Industries International) in 16 mM sodium carbonate/34 mM sodium bicarbonate buffer, pH 9.6 (Sigma-Aldrich). […] Bound IgG Abs were detected spectrophotometrically at 450 nm. […]

[2] = tested on: SARS-CoV-2 spike protein (SmT1); assay: SARS-CoV-2 Spike-specific IgG ELISA in hamsters; assay type: in vivo, Syrian Golden hamsters; settings: 3 μg SmT1 i.m. Day 0 only, serum Day 34 (FIG. 15 lower)

Compound: CC(C)CCCC(C)CCCC(C)CCCC(C)CCOC[C@@H](CO[C@@H]1O[C@H](CO)[C@@H](O[C@@H]2O[C@H](COS(=O)(=O)O)[C@H](O)[C@H](O)[C@H]2O)[C@H](O)[C@H]1O)OCCC(C)CCCC(C)CCCC(C)CCCC(C)C (stereo partly drawn) [SLA, 6′-sulfate-β-D-Galp-(1,4)-β-D-Glcp-(1,1)-archaeol]
- anti-OVA IgG2c titer [1]: 100
- Anti-spike IgG GMT, prime only regimen [2]: 6,050

Compound: polyinosinic-polycytidylic acid [Poly(I:C), reference compound]
- anti-OVA IgG2c titer [1]: 5420
